From patent US6727059B1, “METHOD FOR CONTROLLING THE FIDELITY AND PROCESSIVITY OF REVERSE TRANSCRIPTASE BY INCORPORATION AND POLYMERIZATION OF NUCLEOTIDE ANALOGS ACCEPTED AS SUBSTRATES FOR THE REVERSE TRANSCRIPTION REACTION WITHOUT BLOCKING ITS ELONGATION” (priority 2002, dated 2004)

Legend:
Assay type in all cases: biochemical
[1] = target: T1, HIV-1 reverse transcriptase (Human immunodeficiency virus type 1 group M subtype B, UniProt P04585); test: Identification of termination sites of polymerization with base analogs, HIV-1 reverse transcriptase; conditions: pbs primer; for number of new termination sites appearing / termination rate with the analog compared to the normal dNTP, overall: analog replaces its normal dNTP; for termination rate with the analog compared to the normal dNTP, overall: each dNTP 500 μM, 30 min 37° C.
Text: The termination sites and the termination rates at each site were studied in the presence of 4 natural dNTPs present in excess, or in the presence of three of these natural dNTPs, the fourth being replaced with an analog: dUTP as a replacement for dTTP, dITP and c7dGTP as a replacement for dGTP and, finally, c7dATP in place of dATP (FIGS. 1.2 and 1.3). These analogs affect the formation of the hydrogen bonds in the two grooves of the double helix.
(§1) The termination sites were identified during polymerization catalyzed by the HIV-1 reverse transcriptase and the Klenow fragment by changing one of the dNTPs for its base analog. dTTP was replaced with dUTP, dGTP was replaced with dITP or c7dGTP and dATP was replaced with c7dATP. In this study, the synthesis is primed with pbs.
(§2) The reaction begins by formation of the reaction complex between the matrix/primer labeled at the 5′ end (0.05 pmol) with the enzyme (0.01 U/μl) by incubation at 37° C. for 3 min for the 3 RTs and at 25° C. for the Klenow fragment. A solution containing the 3 dNTPs and one of the analogs, each at the final concentration of 500 μM, and trapping DNA (100:1:trapping DNA:matrix/cold primer) is then added. The use of trapping DNA makes it possible to prevent the reinitialization of the polymerization at the termination sites. In parallel, a control in the presence of the 4 “normal” dNTPs was carried out under reaction conditions identical to the reaction in the presence of analogs. The mixture is incubated for 30 min at 37° C. for the HIV-1 reverse transcriptase and at 25° C. for the Klenow fragment. The reaction is stopped by adding ⅓ volume of stop solution (v/v), and then the reaction products are loaded onto a denaturing 8 M urea 13% acrylamide gel. Position of the termination sites is identified by the co-migration of the sequencing products (Sanger method).
(§3) Each reaction was carried out 3 times; variations in the strength of the termination rates are observed, but they are small and less than 10%. For the HIV-1 reverse transcriptase and the Klenow fragment, the synthesis termination rates with the various analogs (black rods) as a function of the sequence are given in the presence of the termination rates obtained in the control reaction, i.e. in the presence of the “normal” bases (white rods).

[2] = target: T2, Klenow fragment of E.coli DNA-dependent DNA polymerase (Escherichia coli, UniProt P00582); test: Identification of termination sites of polymerization with base analogs, Klenow fragment; conditions: pbs primer; for termination rate with the analog compared to the normal dNTP: analog replaces its normal dNTP, each dNTP 500 μM, 30 min 25° C., positions +20 to +55
T2 construct: the Klenow fragment of E.coli DNA-dependent DNA polymerase (KF)
Text: These matrices were used for parallel studies of HIV-1 reverse transcriptase and of the Klenow fragment of E.coli DNA-dependent DNA polymerase (KF). There have been many studies relating to the fidelity and processivity of the Klenow fragment (Abbotts and Wilson, 1988; Lecomte and Ninio, 1987, 1988; Papanicolaou and Ripley, 1989 and 1991).
as §1, §2, §3
Overall, the presence of the base analogs reduces the efficiency of the Klenow fragment polymerization, making it difficult to detect termination sites beyond the position +55, and for this reason, we have represented, in the various figures which follow, only the termination sites located between position +20 and +55.

[3] = target: T1, HIV-1 reverse transcriptase; test: Kinetics of misincorporation (error rate) in the minus A reaction with base analogs; conditions: absence of dATP; for error rate at the first misincorporation site opposite T-135, start of the kinetics: starting value
Text: In order to understand the role of the three dNTPs present involved in the misincorporation subsequent to the absence of the fourth dNTP, dGTP and/or dCTP were replaced with dITP and dUTP, respectively, in the reaction minus A. dITP was chosen because I can pair with T and therefore compensate for the absence of A, and dUTP was chosen in order to assess the affect that the absence of the methyl of a T may have on the fidelity of incorporation of the neighboring pair. For this reason, we are interested not only in the sites and rates of misincorporations, but in the kinetics with which these misincorporations take place. The conditions most suited to the lack of fidelity of the HIV-RT were selected: use of the matrix+env (ppt primer) and absence of dATP (data not shown).
After hybridization of the ppt primer labeled at the 5′ end (1 pmol), with the matrix+env (2 pmol), the HIV-1 reverse transcriptase is added at the final concentration of 0.1 U/μl. Solutions containing dCTP, dGTP, dTTP (control), dCTP, dITP, dTTP or dCTP, dGTP, dUTP or dCTP, dITP, dUTP, each at the final concentration of 500 μM, were added to equivalent (¼ of the mixture) fractions. […] After denaturation at 92° C. for 5 min, the reaction products are loaded onto an 8M urea denaturing 13% acrylamide gel.
FIG. 4.4 represents the variation in the misincorporation rate in front of T-135 (matrix), the first misincorporation site, as a function of time and of the base analog used.

[4] = target: T1, HIV-1 reverse transcriptase; test: Analysis of mismatches: restriction test and sequencing of mutated plasmids from the minus A reaction; conditions: for fidelity of the HIV-1 reverse transcriptase / profile of mutations: analog instead of normal dNTP
Procedure: Matrix/labeled primer (0.5 pmol), reverse transcriptase (0.04 U/μl) and the 3 dNTPs (500 μM final) were incubated for 30 min at 37° C., and then the dATP (500 μM final) was added and the incubation continued for 30 min at 37° C. The reaction is then stopped by adding EDTA at the concentration of 10 mM final. The reaction products are recovered after alcohol precipitation and digested with the Sac I enzyme. After denaturation at 90° C. for 3 min, the product is loaded onto a denaturing 10% acrylamide gel. After migration and auto-radiography, the 200-base bands are recovered on the gel and then purified. These fragments are amplified by PCR (15 cycles), cleaved with Mlu I and Bam H I and inserted into pBluescript SK+ppt by ligation with T4 DNA ligase, followed by transformation with XL-1 Blue.
The mutated plasmids are easily selected since they no longer have the restriction site recognized by the Nco I enzyme (see FIG. 4.5). In addition, the absence of enzymatic digestion with Sph I implies a double mutation.
The polymerization reaction was carried out in the absence of dATP, as for the reaction in the presence of the “natural” bases, but the dGTP was replaced with dITP or the dTTP was replaced by dUTP. After 30 min at 37° C. in the presence of the HIV-1 reverse transcriptase and of 3 of the 4 bases, the matrix/labeled primer is purified on a Sephadex G50 column, so as to eliminate the nucleotides which have not been incorporated, and in particular the dITP and dUTP which would modify the Sac I restriction site. The elongation is then continued for 30 min at 37° C. in the presence of the 4 natural dNTPs, at the final concentration of 500 μM, and of the enzyme (0.05 U/μl). After alcohol precipitation, digestion with the Sac I restriction enzyme and recovery of the 200-base band, a PCR is carried out under the same conditions as for the reaction in the presence of the “natural” bases. […]

[5] = matrix +env, ppt primer, dNTPs 500 μM each
[6] = 7 plasmids sequenced, minus A, dITP instead of dGTP
[7] = of 36 plasmids isolated, minus A, Nco I and Sph I digestion test
[8] = sequenced plasmids, absence of dATP and dGTP

T2 sequence (P00582 324-928): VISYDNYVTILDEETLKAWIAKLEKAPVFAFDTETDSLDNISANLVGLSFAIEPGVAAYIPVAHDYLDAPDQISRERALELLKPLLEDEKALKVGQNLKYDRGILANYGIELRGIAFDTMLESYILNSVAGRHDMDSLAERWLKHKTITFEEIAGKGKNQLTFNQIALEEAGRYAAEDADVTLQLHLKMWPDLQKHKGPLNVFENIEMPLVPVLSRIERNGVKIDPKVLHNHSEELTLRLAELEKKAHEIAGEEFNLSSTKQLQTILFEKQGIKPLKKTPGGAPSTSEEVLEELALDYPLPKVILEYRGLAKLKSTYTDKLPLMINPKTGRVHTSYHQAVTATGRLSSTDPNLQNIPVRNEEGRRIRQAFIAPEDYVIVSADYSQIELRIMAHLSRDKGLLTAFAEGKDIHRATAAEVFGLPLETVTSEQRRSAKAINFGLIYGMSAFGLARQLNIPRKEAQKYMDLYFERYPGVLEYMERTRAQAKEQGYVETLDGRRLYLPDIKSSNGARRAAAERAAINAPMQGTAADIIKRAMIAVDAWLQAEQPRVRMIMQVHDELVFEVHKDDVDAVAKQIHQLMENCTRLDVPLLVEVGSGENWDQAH

Nc1ncnc2c1ccn2[C@H]1C[C@H](O)[C@@H](COP(=O)(O)OP(=O)(O)OP(=O)(O)O)O1 [c7dATP]
number of new termination sites appearing ([1]; 500 μM): 3 sites
termination rate with the analog compared to the normal dNTP, overall [1]: little effect overall
decrease of the termination rate on A75 ([1]; c7dATP instead of dATP, 500 μM): ~2 fold
increase of termination strength opposite A41 ([1]; c7dATP instead of dATP, 500 μM): 7 ×
increase of termination strength opposite T76 ([1]; c7dATP instead of dATP, 500 μM): 2 ×
increase of the termination rate at A41 ([1]; c7dATP instead of dATP, 500 μM): ~7 fold
part of the elongation complexes stopped at new site T63 ([1]; c7dATP instead of dATP, 500 μM): half
termination rate on A35 ([1]; c7dATP instead of dATP, 500 μM): remains stable
termination rate with the analog compared to the normal dNTP [2]: increase in the termination rates in 3 waves

Nc1nc2c(ccn2C2CC(O)C(COP(=O)(O)OP(=O)(O)OP(=O)(O)O)O2)c(=O)[nH]1 (centres unmarked) [c7dGTP]
number of new termination sites appearing ([1]; 500 μM): 4 sites
termination rate with the analog compared to the normal dNTP, overall [1]: considerable increase at the start of elongation, and then a clear tendency toward decreasing the termination rate
decrease of the termination rate at other sites ([1]; c7dGTP instead of dGTP, 500 μM): up to 10 fold
decrease of the termination rate opposite C21 ([1]; c7dGTP instead of dGTP, 500 μM): 10%
decrease of the termination rate opposite C49 ([1]; c7dGTP instead of dGTP, 500 μM): 90%
increase of the termination rate at 6 of the 18 termination sites ([1]; c7dGTP instead of dGTP, 500 μM): up to 3.5 fold
termination rate with the analog compared to the normal dNTP [2]: All the stops on the sites at which the c7dGMP is incorporated into the polymerized strand are increased
decrease of the termination rate at C32 ([2]; c7dGTP instead of dGTP, 500 μM): 26%

O=c1[nH]cnc2c1ncn2[C@H]1C[C@H](O)[C@@H](COP(=O)(O)OP(=O)(O)OP(=O)(O)O)O1 [dITP]
number of new termination sites appearing ([1]; 500 μM): Two
termination rate with the analog compared to the normal dNTP, overall [1]: higher
factor of increase in the termination rates of 10 sites ([1]; dITP instead of dGTP, 500 μM): ~4
termination strength at the exit of the series of 6As, on average ([1]; dITP instead of dGTP, 500 μM): doubled
termination rate with the analog compared to the normal dNTP [2]: increases in the termination rates of the sites located before the incorporation of a dITP
decrease of the error rate observed with dGTP at the first misinsertion site ([3]; dITP instead of dGTP, after 45 min of incubation): ~50%
error rate at the first misincorporation site opposite T-135 after 10 min [3, 5]: 40%
error rate at the first misincorporation site opposite T-135, start of the kinetics [3, 5]: 0%
deletion or insertion in the plasmids sequenced ([4]; 7 plasmids sequenced, minus A): No deletion or insertion is detected
times C is incorporated at the 1st site of misincorporation (T-135 matrix) [4, 6]: 4 times
times the I base is incorporated at the 1st site of misincorporation (T-135 matrix) [4, 6]: 3 times
order of substitution at the T sites of the matrix ([4]; absence of dATP): C>>I>>T
fidelity of the HIV-1 reverse transcriptase / profile of mutations ([4]; absence of dATP): increased
mutation rate ([4]; in vitro, absence of dATP, dITP instead of dGTP): decreases the mutation rate
plasmids mutated at least on the first site at which A is requested [4, 7]: 4 plasmids
plasmids mutated on at least the first three sites [4, 7]: 3 plasmids
plasmids mutated on the first two sites [4, 7]: one
number of T:I pairings [4, 8]: three
number of T:T pairings [4, 8]: one
number of T:C mismatches, all mismatches whatever their position ([4]; sequenced plasmids, minus A): eight

O=c1ccn([C@H]2C[C@H](O)[C@@H](COP(=O)(O)OP(=O)(O)OP(=O)(O)O)O2)c(=O)[nH]1 [dUTP]
termination rate with the analog compared to the normal dNTP, overall [1]: lower than with dTTP
decrease of the termination rate of most of the sites located before and after the incorporation of the analog (maximum) ([1]; dUTP instead of dTTP, 500 μM): ≤ 5%
number of sites with a decrease of more than half of their termination rate ([1]; dUTP instead of dTTP, 500 μM): Seven
termination rate with the analog compared to the normal dNTP [2]: significantly increases the termination rate of most of the sites which precede the incorporation of the dUMP
error rate at the first misincorporation site opposite T-135 after 10 min [3, 5]: 65%
error rate at the first misincorporation site opposite T-135 after 45 min ([3]; matrix +env, ppt primer, dNTPs 500 μM each, 45 min): ~77%
error rate at the first misincorporation site opposite T-135, start of the kinetics [3, 5]: 5%
T:U mismatch ([4]; 6 plasmids sequenced, minus A, dUTP instead of dTTP): No base U is incorporated
fidelity of the HIV-1 reverse transcriptase / profile of mutations ([4]; absence of dATP): only slightly modifies the profile and the specificity of the mutations
plasmids without any mutations on the Sph I and Nco I sites ([4]; of 36 plasmids, minus A): 15 plasmids
plasmids with at least two mutations ([4]; of 36 plasmids, minus A, Sph I and Nco I digestion): 21 plasmids
number of T:C mismatches, all mismatches whatever their position ([4]; sequenced plasmids, minus A): 6
number of T:G mismatches, all mismatches whatever their position ([4]; sequenced plasmids, minus A): 17
